Measurements from US20210269815A1, “GENETICALLY MODIFIED PLANT AND USES THEREOF” (IST AUSTRIA, priority 2018, published 2021).

Key:
Type in all cases: in vivo, Arabidopsis
SYAC1 promoter = experiment: pSYAC1:GUS / pSYAC1:nlsGFP reporter expression in roots
Protocol: The syac1-1 (salk_151420C, Col-0, KAN^R) and syac1-2 (salk_151662B, Col-0, KAN^R) T-DNA insertion lines were obtained from the Salk Institute. The syac1-3 (GABI-KAT 760F05, Col-0, SUL^R) and syac1-4 (GABI-KAT 961C03, Col-0, SUL^R) T-DNA insertion lines were obtained from the GABI KAT seed collection. The syac1-5 CRISPR line was prepared in collaboration with the VBCF Protein Technologies Facility (www.vbcf.ac.at) (see below). The genetically modified fluorescent-protein marker lines in Col-0 background have been described elsewhere: mCherry tagged wave line 6, 9, 13, 18, 25, 29, 34, 127, 129, 131, 138 (Geldner et al., 2009, Plant J. 59, 169-178), SYP61:SYP61-CFP (Drakakaki et al., 2012, Cell Res. 22, 413-424). The echidna mutant has been described in (Gendre et al., 2011, PNAS 108, 8048-8053) and yip4a-2 yip4b-1 in (Gendre et al., 2013, The Plant Cell 25, 2633-2646). Seeds of Arabidopsis were plated and grown on square plates with solid half strength Murashige and Skoog (MS) medium (Duchefa) supplemented with 0.5 g L^−1 MES, 10 g L^−1 Sucrose, 1% agar and pH adjusted to 5.9. The plates were incubated at 4° C. for 48 h to synchronize seed germination and then vertically grown under a 16:8 h day/night cycle photoperiod at 21° C. Cytokinin and auxin treatments were performed with the N6-benzyladenine cytokinin derivative (Sigma) and Naphthaleneacetic acid (Sigma), respectively. Short treatments (6 hours) for GUS/GFP expression were performed with 10 μM cytokinin and 1 μM auxin (unless indicated differently). For root growth transient assay 0.1 μM cytokinin and 0.05 μM auxin was used. Estradiol treatment was performed with β-Estradiol (Sigma).
For promoter analysis of SYAC1, an upstream sequence of 2522 bp was amplified by PCR and introduced into the pDONRP4-P1R entry vector. Then transcriptional lines (pSYAC1:GUS, pSYAC1:nlsGFP) were created: for pSYAC1:GUS, an LR reaction with SYAC1 promoter in pDONORP4-P1R, pEN-L1-S-L2,0 and pK7m24GW,0 vectors was performed. For pSYAC1:nlsGFP line, an LR reaction with SYAC1 promoter in pDONORP4-P1R, pEN-L1-NF-L2,0 and pB7m24GW,0 was performed. […]

SYAC1 expression = experiment: Genome wide transcriptome profiling of roots exposed to auxin, cytokinin and both hormones; conditions: 3 hours of treatment, 1 μM auxin, 10 μM cytokinin
Protocol: The syac1-1 (salk_151420C, Col-0, KAN^R) and syac1-2 (salk_151662B, Col-0, KAN^R) T-DNA insertion lines were obtained from the Salk Institute. The syac1-3 (GABI-KAT 760F05, Col-0, SUL^R) and syac1-4 (GABI-KAT 961C03, Col-0, SUL^R) T-DNA insertion lines were obtained from the GABI KAT seed collection. The syac1-5 CRISPR line was prepared in collaboration with the VBCF Protein Technologies Facility (www.vbcf.ac.at) (see below). The genetically modified fluorescent-protein marker lines in Col-0 background have been described elsewhere: mCherry tagged wave line 6, 9, 13, 18, 25, 29, 34, 127, 129, 131, 138 (Geldner et al., 2009, Plant J. 59, 169-178), SYP61:SYP61-CFP (Drakakaki et al., 2012, Cell Res. 22, 413-424). The echidna mutant has been described in (Gendre et al., 2011, PNAS 108, 8048-8053) and yip4a-2 yip4b-1 in (Gendre et al., 2013, The Plant Cell 25, 2633-2646). […]
To search for novel molecular components and mechanisms of auxin-cytokinin cross-talk, genome wide transcriptome profiling of roots exposed to auxin, cytokinin and both hormones simultaneously, was performed. […] This SYAC1 expression profile in roots was further validated by quantitative real-time (RT-qPCR) (FIG. 2A). […]

[1] = system: root tip of wild type control plants; experiment: Effect of excess copper on the primary root of seedlings grown on agar; conditions: 5 days on normal media, then transferred to media containing 50 μM CuSO4
Protocol: Plants were grown for 5 days on normal AM+ media and then transferred to media containing 50 μM CuSO4.

SMILES: NC1(C(=O)O)CC1 [ACC, 1-aminocyclopropane-1-carboxylic acid]
- enhancement of pSYAC1:GUS expression (SYAC1 promoter; roots treated with ACC only or in combination with cytokinin, auxin or both): No enhancement

SMILES: O=C(O)Cc1cccc2ccccc12 [auxin, Naphthaleneacetic acid]
- SYAC1 expression compared to an untreated control (SYAC1 expression): 2.47±0.20

SMILES: c1ccc(CNc2ncnc3nc[nH]c23)cc1 [cytokinin, N6-benzyladenine]
- SYAC1 expression compared to an untreated control (SYAC1 expression): 1.53±0.19
- pSYAC1 reporter signal (pSYAC1:GUS, pSYAC1:nlsGFP) (SYAC1 promoter; roots, 6 hours exposure): enhanced reporter signal in the quiescent center (QC) and columella initials (CI)

SMILES: O=S(=O)([O-])[O-].[Cu+2] [CuSO4]
- SYAC1 promoter-driven GUS expression in reporter lines (SYAC1 promoter; 50 μM CuSO4 in ½MS plus Agar substrate): able to trigger
- swelling of cells at the root tip [1]: trigger swelling of cells at the root tip
